The results in this text go back to patent US20160237059A1, “HETEROCYCLIC SUBSTITUTED TRIFLUOROMETHYL PYRIMIDINONES AND THEIR USE” (BAYER PHARMA AKTIENGESELLSCHAFT, priority 2013, published 2016).

The term IC50 denotes the concentration that gives 50% inhibition.

Each structure is given as a SMILES string.

Assay type in all cases: cell-based
The target of one test is T1, human CCR2 (Homo sapiens, UniProt P41597).
T1 construct: host or cells: Chem-1 cell line
T1 sequence (P41597 1-360 isoform P41597-2): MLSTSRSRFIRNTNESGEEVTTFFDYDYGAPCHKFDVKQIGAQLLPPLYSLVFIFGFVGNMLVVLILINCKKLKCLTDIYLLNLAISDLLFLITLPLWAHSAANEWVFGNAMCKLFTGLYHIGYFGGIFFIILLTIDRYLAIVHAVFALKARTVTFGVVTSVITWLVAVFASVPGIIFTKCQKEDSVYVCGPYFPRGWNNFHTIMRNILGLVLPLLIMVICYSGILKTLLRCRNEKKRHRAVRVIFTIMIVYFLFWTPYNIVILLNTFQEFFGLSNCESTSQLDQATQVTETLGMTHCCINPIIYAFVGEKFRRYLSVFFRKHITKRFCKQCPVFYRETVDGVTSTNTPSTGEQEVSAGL
As to the kind of experiment: Functional Ca2+ release test (B-1). The settings on record: Chem-1 cell line transfected with human CCR2; 50% inhibition of the MCP-1 effect, MCP-1 at EC50 (about 5 nM); in some cases means of several determinations. The method in brief: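 Chem-1 cells expressing human CCR2, loaded with Fluo-4 for 60 min at 37° C, were preincubated 10 min with compound (10-point, 1:3.16 dilutions), then stimulated with MCP-1 at its predetermined EC50 (about 5 nM). Ca2+ release was monitored for 120 s. IC50 came from a 4-parameter Hill fit.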

For test [1], the target named is T2, murine CCR2 (Mus musculus, UniProt P51683).
T2 construct: host or cells: U2OS β-arrestin cell line
As to the kind of experiment: Functional β-arrestin recruiting test with murine MCP-1 (B-2b). Conditions: U2OS β-arrestin cell line transfected with murine CCR2; agonist murine MCP-1; in some cases means of several determinations. The method in brief: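 In a PathHunter β-galactosidase complementation assay, U2OS cells expressing murine CCR2 were preincubated 10 min with compound (10-point, 1:3.16 dilutions), then challenged with murine MCP-1 at its predetermined EC50 for 90 min at 37 °C. Luminescence was read after 60 min, and IC50 was fitted with a 4-parameter Hill function.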

In test [2] the target is T2, murine CCR2. Nature of the test: Functional β-arrestin recruiting test with human MCP-1 (B-2a). Conditions: U2OS β-arrestin cell line transfected with murine CCR2; agonist human MCP-1 at EC50 (about 3 nM); in some cases means of several determinations. The method in brief:
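Antagonist mode in U2OS cells expressing murine CCR2, read by PathHunter β-galactosidase complementation luminescence. Cells pre-incubated 10 min with 10-point compound dilutions (1:3.16 steps), then stimulated with human MCP-1 at its EC50 (usually about 3 nM) for 90 min at 37° C.; IC50 from 4-parameter logistic fit.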

T2 sequence (P51683 whole entry): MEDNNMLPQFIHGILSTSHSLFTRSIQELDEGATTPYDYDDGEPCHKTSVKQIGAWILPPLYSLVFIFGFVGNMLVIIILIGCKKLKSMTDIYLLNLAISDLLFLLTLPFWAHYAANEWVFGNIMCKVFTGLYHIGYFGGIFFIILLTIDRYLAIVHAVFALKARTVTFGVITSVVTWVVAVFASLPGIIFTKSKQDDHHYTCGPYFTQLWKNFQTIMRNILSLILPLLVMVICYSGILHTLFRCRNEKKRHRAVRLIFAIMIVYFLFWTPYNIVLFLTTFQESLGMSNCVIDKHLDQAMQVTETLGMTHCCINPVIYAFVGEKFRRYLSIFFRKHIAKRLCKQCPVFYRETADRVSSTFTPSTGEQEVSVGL

`O=c1[nH]c(-c2ncccc2Cl)nc(C(F)(F)F)c1Cc1ccc(Cl)c(Cl)c1` [Example 16, 2-(3-chloropyridin-2-yl)-5-(3,4-dichlorobenzyl)-6-(trifluoromethyl)pyrimidin-4(3H)-one]: the IC50 on human CCR2 was determined as 2.1 nM; on murine CCR2 [1], 307 nM; on murine CCR2 [2], 21 nM.

In the case of `O=c1[nH]c(-c2ncccc2F)nc(C(F)(F)F)c1Cc1ccc(Cl)c(Cl)c1` [Example 17, 5-(3,4-dichlorobenzyl)-2-(3-fluoropyridin-2-yl)-6-(trifluoromethyl)pyrimidin-4(3H)-one], the IC50 came to 1.4 nM on human CCR2, 191 nM on murine CCR2 [1] and 43 nM at murine CCR2 [2].

With `COc1cccnc1-c1nc(C(F)(F)F)c(Oc2ccc(Cl)c(Cl)c2)c(=O)[nH]1` [Example 24, 5-(3,4-dichlorophenoxy)-2-(3-methoxypyridin-2-yl)-6-(trifluoromethyl)pyrimidin-4(3H)-one], the results for the IC50 at human CCR2, at murine CCR2 [1] and at murine CCR2 [2] were 0.4 nM, 54 nM and 8.2 nM, respectively.

For the compound `O=c1[nH]c(-c2ncccc2Cl)nc(C(F)(F)F)c1Cc1ccc(Cl)c(C(F)(F)F)c1` [Example 35, 2-(3-chloropyridin-2-yl)-5-[4-chloro-3-(trifluoromethyl)benzyl]-6-(trifluoromethyl)pyrimidin-4(3H)-one], the IC50 came out at 1.5 nM on human CCR2, 160 nM on murine CCR2 [1] and 35 nM on murine CCR2 [2].

Take `COc1ncccc1-c1nc(C(F)(F)F)c(Oc2ccc(Cl)c(C(F)(F)F)c2)c(=O)[nH]1` [Example 37, 5-[4-chloro-3-(trifluoromethyl)phenoxy]-2-(2-methoxypyridin-3-yl)-6-(trifluoromethyl)pyrimidin-4(3H)-one]: the IC50 against human CCR2 stood at 0.9 nM; on murine CCR2 [1] it was 122 nM; at murine CCR2 [2], 40 nM.

For `O=c1[nH]c(-c2ncccc2Cl)nc(C(F)(F)F)c1Oc1ccc(Cl)c(C(F)(F)F)c1` [Example 38, 2-(3-chloropyridin-2-yl)-5-[4-chloro-3-(trifluoromethyl)phenoxy]-6-(trifluoromethyl)pyrimidin-4(3H)-one], the figures for the IC50 against human CCR2, on murine CCR2 [1] and on murine CCR2 [2] were 0.3 nM, 8.9 nM and 5.1 nM, respectively.

Consider `O=c1[nH]c(-c2ncccc2F)nc(C(F)(F)F)c1Oc1ccc(Cl)c(C(F)(F)F)c1` [Example 39, 5-[4-chloro-3-(trifluoromethyl)phenoxy]-2-(3-fluoropyridin-2-yl)-6-(trifluoromethyl)pyrimidin-4(3H)-one], for which the IC50 came to 0.9 nM against human CCR2, 50 nM on murine CCR2 [1] and 20 nM at murine CCR2 [2].

Take `COc1cccnc1-c1nc(C(F)(F)F)c(Oc2ccc(Cl)c(C(F)(F)F)c2)c(=O)[nH]1` [Example 40, 5-[4-chloro-3-(trifluoromethyl)phenoxy]-2-(3-methoxypyridin-2-yl)-6-(trifluoromethyl)pyrimidin-4(3H)-one]: the IC50 amounted to 0.8 nM against human CCR2, 44 nM at murine CCR2 [1] and 12 nM on murine CCR2 [2].

Regarding `COc1ncccc1-c1nc(C(F)(F)F)c(Oc2ccc(Cl)c(Cl)c2)c(=O)[nH]1` [Example 42], the IC50 against human CCR2 was determined as 1.5 nM; on murine CCR2 [1], 812 nM; at murine CCR2 [2], 44 nM.

Consider `Nc1cccc(-c2nc(C(F)(F)F)c(Oc3ccc(Cl)c(C(F)(F)F)c3)c(=O)[nH]2)n1` [Example 44, 2-(6-aminopyridin-2-yl)-5-[4-chloro-3-(trifluoromethyl)phenoxy]-6-(trifluoromethyl)pyrimidin-4(3H)-one], for which the IC50 came to 2.2 nM against human CCR2, 222 nM on murine CCR2 [1] and 74 nM on murine CCR2 [2].

Take `Nc1ccnc(-c2nc(C(F)(F)F)c(Oc3ccc(Cl)c(C(F)(F)F)c3)c(=O)[nH]2)c1` [Example 45, 2-(4-aminopyridin-2-yl)-5-[4-chloro-3-(trifluoromethyl)phenoxy]-6-(trifluoromethyl)pyrimidin-4(3H)-one]: the IC50 on human CCR2 turned out to be 4.7 nM; on murine CCR2 [1], 553 nM; at murine CCR2 [2], 86 nM.
